Where two headings read alike, the source gives them in different places.
Assays:
SRSF6 protein = target: T1, SRSF6 protein (Homo sapiens, UniProt Q13247); assay: SRSF6 protein thermal shift assay; assay type: binding; details: for migration of SRSF6 protein compared with DMSO: in words
T1 sequence (Q13247 1-183): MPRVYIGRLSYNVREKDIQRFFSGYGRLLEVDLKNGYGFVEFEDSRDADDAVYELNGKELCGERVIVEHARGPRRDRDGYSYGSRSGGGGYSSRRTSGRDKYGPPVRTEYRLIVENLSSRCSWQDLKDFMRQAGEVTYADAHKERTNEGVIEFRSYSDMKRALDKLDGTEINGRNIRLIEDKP
Description: SRSF proteins play an important role in the regulation of gene expression, including constitutive splicing, alternative splicing, mRNA nuclear export and translation. SRSF proteins can be divided into two groups according to the number of RRM domains. Among them, SRSF6 has RRM1 and RRM2 domains. The RRM1 domain contains conserved sequences of RNP-1 and RNP-2, which can bind to related mRNAs. However, the RRM2 domain contains the evolutionarily conserved SWQDLKD heptapeptide sequence. RRM1 and RRM2 domains play irreplaceable roles in the specific recognition of alternative splice sites. Overexpression of SRSF6 induced colorectal carcinogenesis by binding to cell adhesion factor ZO-1, while indacaterol was validated to inhibit tumor development. Therefore, RRM1 and RRM2 domains of SRSF6 were extracted and the binding ability of compound I1 to SRSF6 was investigated by protein thermal shift assay using LYW1 as a reference.
We used DMSO as the blank group, and 56.5 μM SRSF6 protein was added to the PCR tube with LYW1 and I1 at a concentration of 1:10, respectively. After TS dye was added in the dark, the thermal migration assay was performed.

RKO cells = assay: Inhibitory effect on RKO cells (cell survival rate at 48 h); assay type: cell-based, Human; details: procedures as for SW620, 48 h, read-out: IC50, inhibitory effects on RKO cells
Description: (§1) Compound I was prepared with the same concentration gradient for primary screening, and compounds with lower IC50 than indacaterol were screened for secondary screening with concentration gradients of 1, 2, 4, and 8 μM.
(§2) Both rounds of screening were performed on the colorectal cancer cell line SW620 with an initial cell number of 5000 cells per well, and the cell survival rate at 48 h was determined directly to determine the IC50 of the compound.
(§3) Cell viability=[(reading of experimental group−reading of blank group)/(reading of control group−reading of blank group)]×100%.

HT29 cells = assay: Inhibitory effect on HT29 cells (cell survival rate at 48 h); assay type: cell-based, Human; details: HT29, procedures as for SW620, 48 h, read-out: IC50, inhibitory effects on HT29 cells
Description: as §1, §2, §3

SW620 cells = assay: Inhibitory effect on SW620 cells (cell survival rate at 48 h); assay type: cell-based; details: read-out: IC50, inhibitory effects on SW620 cells
Description: as §1, §2, §3

[1] = Homo sapiens, SW-620, 48 h, SW620, 5000 cells per well

Row | Structure (SMILES) | IC50 (RKO cells; Homo sapiens, 48 h) [µM] | IC50 (HT29 cells; Homo sapiens, HT-29, 48 h) [µM] | IC50 (SW620 cells; [1]) [µM] | other results
1 | CCc1cc2c(cc1CC)CC(NC[C@@H](O)c1ccc(OCc3ccc(F)cc3)c3[nH]c(=O)ccc13)C2 [Compound I1, (S)-5-(2-((5,6-diethyl-2,3-dihydro-1H-inden-2-yl)amino)-1-hydroxyethyl)-8-((4-fluorobenzyl)oxy)quinolin-2(1H)-one] | – | – | – | binding effect with SRSF6 protein (SRSF6 protein; compared with LYW1, in words): better binding effect; migration of SRSF6 protein compared with DMSO (SRSF6 protein): negative migration; IC50 (RKO cells; Homo sapiens): 1.42 µM; IC50 (HT29 cells; Homo sapiens, HT-29): 1.42 µM; IC50 (SW620 cells; Homo sapiens, SW-620, SW620, 5000 cells per well): 3.12 µM
2 | CCc1cc2c(cc1CC)CC(NC[C@H](O)c1ccc(OCc3ccc(F)cc3)c3[nH]c(=O)ccc13)C2 [Compound I2, (R)-5-(2-((5,6-diethyl-2,3-dihydro-1H-inden-2-yl)amino)-1-hydroxyethyl)-8-((4-fluorobenzyl)oxy)quinolin-2(1H)-one] | 5.56 | 4.69 | 8.62 | –
3 | CCc1cc2c(cc1CC)CC(NC[C@@H](O)c1ccc(OCc3ccc(C)cc3)c3[nH]c(=O)ccc13)C2 [Compound I4, (S)-5-(2-((5,6-diethyl-2,3-dihydro-1H-inden-2-yl)amino)-1-hydroxyethyl)-8-((4-methylbenzyl)oxy)quinolin-2(1H)-one] | – | – | 2.9 | –
4 | CCc1cc2c(cc1CC)CC(NC[C@H](O)c1ccc(OCc3ccc(C)cc3)c3[nH]c(=O)ccc13)C2 [Compound I5, (R)-5-(2-((5,6-diethyl-2,3-dihydro-1H-inden-2-yl)amino)-1-hydroxyethyl)-8-((4-methylbenzyl)oxy)quinolin-2(1H)-one] | – | – | 2.98 | –
5 | CCc1cc2c(cc1CC)CC(NC[C@@H](O)c1ccc(OCc3cccc(F)c3)c3[nH]c(=O)ccc13)C2 [Compound I6, (S)-5-(2-((5,6-diethyl-2,3-dihydro-1H-inden-2-yl)amino)-1-hydroxyethyl)-8-((3-fluorobenzyl)oxy)quinolin-2(1H)-one] | – | – | 3.06 | –
6 | CCc1cc2c(cc1CC)CC(NC[C@H](O)c1ccc(OCc3cccc(F)c3)c3[nH]c(=O)ccc13)C2 [Compound I7, (R)-5-(2-((5,6-diethyl-2,3-dihydro-1H-inden-2-yl)amino)-1-hydroxyethyl)-8-((3-fluorobenzyl)oxy)quinolin-2(1H)-one] | 3.11 | 2.66 | 2.73 | –
7 | CCc1cc2c(cc1CC)CC(NC[C@@H](O)c1ccc(OCc3cc(F)cc(F)c3)c3[nH]c(=O)ccc13)C2 [Compound I9, (S)-5-(2-((5,6-diethyl-2,3-dihydro-1H-inden-2-yl)amino)-1-hydroxyethyl)-8-((3,5-difluorobenzyl)oxy)quinolin-2(1H)-one] | – | – | 3.15 | –
8 | CCc1cc2c(cc1CC)CC(NC[C@@H](O)c1ccc(OCc3ccc(F)c(F)c3)c3[nH]c(=O)ccc13)C2 [Compound I10, (S)-5-(2-((5,6-diethyl-2,3-dihydro-1H-inden-2-yl)amino)-1-hydroxyethyl)-8-((3,4-difluorobenzyl)oxy)quinolin-2(1H)-one] | – | – | 4.18 | –
9 | CCc1cc2c(cc1CC)CC(NC[C@@H](O)c1ccc(OCc3c(F)c(F)c(F)c(F)c3F)c3[nH]c(=O)ccc13)C2 [Compound I11, (S)-5-(2-((5,6-diethyl-2,3-dihydro-1H-inden-2-yl)amino)-1-hydroxyethyl)-8-((perfluorophenyl)methoxy)quinolin-2(1H)-one] | – | – | 6.09 | –
10 | CCc1cc2c(cc1CC)CC(NC[C@H](O)c1ccc(O)c3[nH]c(=O)ccc13)C2 [Indacaterol, reference compound] | 10 to 15 | 10 to 15 | 20 to 25 | IC50 (RKO cells): 12.8 µM; IC50 (HT29 cells): 12.7 µM; IC50 (SW620 cells; SW620, 5000 cells per well): 23.1 µM
11 | CCc1cc2c(cc1CC)CC(NC[C@H](O)c1ccc(OCc3ccccc3)c3[nH]c(=O)ccc13)C2 [LYW1, reference compound] | 2.03 | 2.43 | 3.54 | migration of SRSF6 protein compared with DMSO (SRSF6 protein): negative migration

Source: patent US20240300893A1, “SMALL MOLECULE COMPOUNDS TARGETING SRSF6 PROTEIN AND THEIR PREPARATION METHODS AND APPLICATIONS” (CHINA PHARMACEUTICAL UNIVERSITY, priority 2021, published 2024)
